29 compounds from PubChem BioAssay AID330 (DTP/NCI, 2004) can be followed below.

The assay has as its system P388 leukemia ip, CD2F1 mice, survival T/C. As to the kind of experiment: NCI In Vivo Anticancer Drug Screen. Data for tumor model P388 Leukemia (intraperitoneal) in CD2F1 (CDF1) mice. The conditions noted are these: endpoint: median survival time, higher = longer survival. In short, it runs like this:
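Mice carrying the transplanted tumor received test compound or vehicle. Survival was recorded in each group, and the value is the treated-group measurement divided by that of the vehicle-treated control group.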

The mark [1] stands for this setting: dose: 50.0 mg/kg/injection, schedule: Q01DX009 (ip), vehicle: saline.
[2] abbreviates: dose: 100.0 mg/kg/injection, schedule: Q01DX009 (ip), vehicle: saline.
Where [3] appears, read: dose: 200.0 mg/kg/injection, schedule: Q01DX009 (ip), vehicle: saline.
Setting [4] is: dose: 50.0 mg/kg/injection, schedule: Q01DX009 (ip), vehicle: saline with Tween-80.
The mark [5] stands for this setting: dose: 50.0 mg/kg/injection, schedule: Q01DX009 (ip), vehicle: Klucel (hydroxypropylcellulose) (HPC).
Setting [6] is: dose: 100.0 mg/kg/injection, schedule: Q01DX009 (ip), vehicle: Klucel (hydroxypropylcellulose) (HPC).
[7] abbreviates: dose: 200.0 mg/kg/injection, schedule: Q01DX009 (ip), vehicle: Klucel (hydroxypropylcellulose) (HPC).
Where [8] appears, read: dose: 25.0 mg/kg/injection, schedule: Q01DX005 (ip), vehicle: Klucel (hydroxypropylcellulose) (HPC).
The mark [9] stands for this setting: dose: 50.0 mg/kg/injection, schedule: Q01DX005 (ip), vehicle: Klucel (hydroxypropylcellulose) (HPC).
Where [10] appears, read: dose: 100.0 mg/kg/injection, schedule: Q01DX005 (ip), vehicle: Klucel (hydroxypropylcellulose) (HPC).
[11] abbreviates: dose: 100.0 mg/kg/injection, schedule: Q01DX009 (ip), vehicle: saline with Tween-80.
The mark [12] stands for this setting: dose: 200.0 mg/kg/injection, schedule: Q01DX005 (ip), vehicle: Klucel (hydroxypropylcellulose) (HPC).
Setting [13] is: dose: 50.0 mg/kg/injection, schedule: Q01DX005 (ip), vehicle: saline with Tween-80.
Where [14] appears, read: dose: 100.0 mg/kg/injection, schedule: Q01DX005 (ip), vehicle: saline with Tween-80.
[15] abbreviates: dose: 200.0 mg/kg/injection, schedule: Q01DX001 (ip), vehicle: Klucel (hydroxypropylcellulose) (HPC).
Where [16] appears, read: dose: 400.0 mg/kg/injection, schedule: Q01DX001 (ip), vehicle: Klucel (hydroxypropylcellulose) (HPC).
Setting [17] is: dose: 200.0 mg/kg/injection, schedule: Q01DX005 (ip), vehicle: saline with Tween-80.

“And” between values parts separate entries of the source, which are not always exact repeats. Equal entries are not always repeated. Inconclusive results and toxic doses are left out.

As to `CNC(=O)N(C)C/C=C/CN(C)C(=O)NC`, the T/C reads like this: under setting [1], 105 % of control; under setting [2], 102 % of control; under setting [3], 102 % of control.
For the compound `S=C(Nc1ccc(Cl)cc1)SSC(Cl)(Cl)Cl`, the T/C by setting is: (dose: 12.5 mg/kg/injection, schedule: Q01DX009 (ip), vehicle: saline with Tween-80) 91 % of control; (dose: 25.0 mg/kg/injection, schedule: Q01DX009 (ip), vehicle: saline with Tween-80) 100 % of control; (dose: 50.0 mg/kg/injection, schedule: Q01DX009 (ip), vehicle: saline + alcohol) 112 % of control; under setting [4], 115 % of control.
For `CCc1cccc2c3c([nH]c12)C(CC)(CC(=O)O)OCC3` (stereo not drawn), the T/C runs as follows: under setting [5], 102 % of control; under setting [6], 110 % of control; under setting [7], 107 % of control.
Regarding `CCOC(=O)NOP(=O)(N1CC1)N1CC1`, the T/C is 109 % of control and 124 % of control (dose: 12.5 mg/kg/injection, schedule: Q01DX001 (ip), vehicle: saline + alcohol); 111 % of control (dose: 25.0 mg/kg/injection, schedule: Q01DX001 (ip), vehicle: saline + alcohol); 238 % of control (dose: 100.0 mg/kg/injection, schedule: Q01DX001 (ip), vehicle: saline + alcohol).
`O=C(Nc1ccc([N+](=O)[O-])cc1C(Sc1ccccc1)c1ccccc1)c1ccc([N+](=O)[O-])cc1` (stereo not drawn): the T/C is, setting by setting: (dose: 100.0 mg/kg/injection, schedule: Q01DX001 (ip), vehicle: saline with Tween-80) 94 % of control; (dose: 200.0 mg/kg/injection, schedule: Q01DX001 (ip), vehicle: saline with Tween-80) 87 % of control.
For the compound `C=CC(=O)NC1(c2ccccc2)CN2CCC1CC2` (stereo not drawn), the T/C under setting [5] was 96 % of control.
With `O=C(O)c1cc(-c2ccc(Cl)cc2)nc2c1ccc1ccccc12`, the T/C is 100 % of control under setting [8], 100 % of control under setting [9] and 100 % of control under setting [10].
For the compound `COc1ccc(C(=O)CC2CCCC(CC(=O)c3ccc(OC)cc3)N2C)cc1` (stereo not drawn), the T/C was 100 % of control under setting [4] and 101 % of control under setting [11].
Take `CCOC(=O)/C(C#N)=C1/SC=C(N)N1c1ccccc1`: the T/C by setting is: under setting [9], 98 % of control; under setting [10], 94 % of control; under setting [12], 91 % of control.
With `O=c1ccccc(Br)c1O`, the T/C was 100 % of control under setting [8], 106 % of control under setting [9] and 106 % of control under setting [10].
Regarding `O=S(=O)(Nc1ccccn1)c1ccc(N=Cc2c3ccccc3nc3cc(Cl)ccc23)cc1`, the T/C is, setting by setting: under setting [13], 91 % of control; under setting [14], 88 % of control.
Regarding `O=C(Cc1cccs1)c1ccc(O)cc1`, the T/C was 99 % of control under setting [9], 102 % of control under setting [10] and 105 % of control under setting [12].
Regarding `Cc1nc2c(cc1[N+](=O)[O-])C(=O)NCCN2`, the T/C is 91 % of control (dose: 25.0 mg/kg/injection, schedule: Q04DX003 (ip), vehicle: Klucel (hydroxypropylcellulose) (HPC)); 100 % of control (dose: 50.0 mg/kg/injection, schedule: Q04DX003 (ip), vehicle: Klucel (hydroxypropylcellulose) (HPC)); 96 % of control (dose: 100.0 mg/kg/injection, schedule: Q04DX003 (ip), vehicle: Klucel (hydroxypropylcellulose) (HPC)).
Turning to `COc1cc(C2C(C(C)=O)=C(C)Oc3cc4c(cc32)OCO4)cc(OC)c1O` (stereo not drawn), the T/C reads like this: (dose: 15.0 mg/kg/injection, schedule: Q01DX005 (ip), vehicle: saline with Tween-80) 91 % of control; (dose: 30.0 mg/kg/injection, schedule: Q01DX005 (ip), vehicle: saline with Tween-80) 91 % of control; (dose: 60.0 mg/kg/injection, schedule: Q01DX005 (ip), vehicle: saline with Tween-80) 86 % of control and 90 % of control.
For `O=C(N/N=C\c1cc([N+](=O)[O-])ccc1O)C(=O)N/N=C\c1cc([N+](=O)[O-])ccc1O`, the T/C is, setting by setting: under setting [5], 106 % of control; under setting [6], 95 % of control; under setting [7], 99 % of control.
For the compound `CC(=O)N=c1sccn1CC(O)c1ccccc1` (stereo not drawn), the T/C by setting is: under setting [5], 105 % of control; under setting [6], 99 % of control; under setting [15], 118 % of control; under setting [7], 108 % of control; under setting [16], 100 % of control.
Turning to `C=CCOc1cc2c(cc1C(C)c1cc(OC)c(OC)c(OC)c1)OCO2` (stereo not drawn), the T/C is, setting by setting: under setting [13], 101 % of control; under setting [14], 99 % of control; under setting [17], 108 % of control.
`N#Cc1c(N)sc(=S)c2c1CCCC2`: the T/C under setting [1] was 104 % of control, the T/C under setting [2] is 95 % of control and the T/C under setting [3] was 95 % of control.
As for `CS1=C2C(=O)CCCC2=Nc2ccccc21` (stereo not drawn), the T/C by setting is: (dose: 50.0 mg/kg/injection, schedule: Q01DX005 (ip), vehicle: saline) 97 % of control; (dose: 100.0 mg/kg/injection, schedule: Q01DX005 (ip), vehicle: saline) 100 % of control.
As to `COC(=O)c1ccc(/C=C(\c2ccc([N+](=O)[O-])o2)S(=O)(=O)c2ccc(NC(C)=O)cc2)o1`, the T/C runs as follows: (dose: 50.0 mg/kg/injection, schedule: Q01DX009 (ip), vehicle: suspension in saline) 95 % of control; (dose: 100.0 mg/kg/injection, schedule: Q01DX009 (ip), vehicle: suspension in saline) 88 % of control.
As for `Cc1cc(-c2ccccc2)n(C(C(=O)c2ccccc2)c2ccccc2)n1` (stereo not drawn), the T/C is 101 % of control under setting [4]; 106 % of control under setting [11]; 100 % of control (dose: 200.0 mg/kg/injection, schedule: Q01DX009 (ip), vehicle: saline with Tween-80).
For `CCOC(=O)C(C)(NC(=O)c1ccccc1)C(=O)OCC`, the T/C is 101 % of control and 105 % of control (dose: 60.0 mg/kg/injection, schedule: Q01DX005 (ip), vehicle: saline); 109 % of control (dose: 120.0 mg/kg/injection, schedule: Q01DX005 (ip), vehicle: saline); 100 % of control and 97 % of control (dose: 240.0 mg/kg/injection, schedule: Q01DX005 (ip), vehicle: saline).
Consider `C=CC[P+](Cc1ccccc1)(c1ccccc1)c1ccccc1`, for which the T/C by setting is: (dose: 0.78 mg/kg/injection, schedule: Q01DX009 (ip), vehicle: saline) 107 % of control; (dose: 1.56 mg/kg/injection, schedule: Q01DX009 (ip), vehicle: saline) 103 % of control; (dose: 3.13 mg/kg/injection, schedule: Q01DX009 (ip), vehicle: saline) 96 % of control.
As for `CC(=O)c1cc2ccccc2c2ccccc12`, the T/C under setting [13] was 98 % of control, the T/C under setting [14] was 98 % of control and the T/C under setting [17] is 96 % of control.
Turning to `NC(=S)N/N=C/c1c(-c2ccc(Cl)cc2)nc2n1CCS2`, the T/C is 97 % of control (dose: 100.0 mg/kg/injection, schedule: Q01DX001 (ip), vehicle: Klucel (hydroxypropylcellulose) (HPC)); 100 % of control under setting [15]; 97 % of control under setting [16].
Consider `CCNC(=O)OCCN(CC)CC`, for which the T/C reads like this: under setting [1], 103 % of control; under setting [2], 103 % of control; under setting [3], 104 % of control.
For the compound `COc1ccc2nc3ccccc3c(NCCNCCO)c2c1`, the T/C was 105 % of control (dose: 1.25 mg/kg/injection, schedule: Q01DX009 (ip), vehicle: saline); 105 % of control (dose: 2.5 mg/kg/injection, schedule: Q01DX009 (ip), vehicle: saline); 120 % of control (dose: 5.0 mg/kg/injection, schedule: Q01DX009 (ip), vehicle: saline).
For the compound `CCOC(=O)/C=C(\C)NC1CC(OC2CC(O)(C(C)=O)Cc3c(O)c4c(c(O)c32)C(=O)c2c(OC)cccc2C4=O)OC(C)C1O` (stereo not drawn), the T/C by setting is: (dose: 6.25 mg/kg/injection, schedule: Q04DX003 (ip), vehicle: distilled water + Tween-80) 110 % of control; (dose: 12.5 mg/kg/injection, schedule: Q04DX003 (ip), vehicle: distilled water + Tween-80) 119 % of control; (dose: 50.0 mg/kg/injection, schedule: Q04DX003 (ip), vehicle: distilled water + Tween-80) 118 % of control.
As for `O=C(c1ccc(Cl)nc1)c1cccs1`, the T/C was 98 % of control (dose: 50.0 mg/kg/injection, schedule: Q01DX005 (ip), vehicle: distilled water + alcohol); 108 % of control (dose: 100.0 mg/kg/injection, schedule: Q01DX005 (ip), vehicle: distilled water + alcohol); 110 % of control (dose: 200.0 mg/kg/injection, schedule: Q01DX005 (ip), vehicle: distilled water + alcohol).
